Test results taken from ChEMBL document CHEMBL5532652, “Design and synthesis of pterostilbene derivatives bearing triazole moiety that might treat DSS-induced colitis in mice through modulation of NF-κB/MAPK signaling pathways” (Eur J Med Chem, 2024).
Activity calls are given as the source filed them. The calls are words filed in the database; no cut-off is given here.

What was measured:
[1] = system: RAW264.7; experiment: Anti-inflammatory activity in LPS-stimulated mouse RAW264.7 cells assessed as inhibition of p38 phosphorylation preincubated with compound for 1 hr followed by LPS stimulation and measured after 30 mins by Western blot analysis; assay type: functional, cell-based; conditions: dose 0.5-2 µM, time 1.5 hrs
[2] = Acute toxicity in C57BL/6 mouse assessed as kidney damage at 1000 mg/kg, po measured for 14 days; assay type: organism-based; conditions: in vivo, 336 h, time 14 day
[3] = Acute toxicity in C57BL/6 mouse assessed as liver damage at 1000 mg/kg, po measured for 14 days; assay type: organism-based; conditions: in vivo, 336 h, time 14 day
[4] = Acute toxicity in male C57BL/6 mouse assessed as effect on body weight gain at 1000 to 2000 mg/kg, po measured for 14 days; assay type: organism-based; conditions: in vivo, 336 h, dose 1000-2000 mg/kg, time 14 day
[5] = system: RAW264.7; experiment: Anti-inflammatory activity in LPS-stimulated mouse RAW264.7 cells assessed as inhibition of JNK phosphorylation preincubated with compound for 1 hr followed by LPS stimulation and measured after 30 mins by Western blot analysis; assay type: functional, cell-based; conditions: dose 0.5-2 µM, time 1.5 hrs
[6] = Acute toxicity in male C57BL/6 mouse assessed as anorexia at 1000 to 2000 mg/kg, po measured for 14 days; assay type: organism-based; conditions: in vivo, 336 h, dose 1000-2000 mg/kg, time 14 day
[7] = system: Mus musculus; experiment: Anti-inflammatory activity against DSS-induced acute colitis C57BL/6J mouse model assessed as reduction in TNF-alpha level in colon at 10 to 20 mg/kg, po measured for 7 days by ELISA analysis; assay type: functional, organism-based; conditions: dose 10-20 mg/kg, time 7.0 day
[8] = Acute toxicity in C57BL/6 mouse assessed as spleen damage at 1000 mg/kg, po measured for 14 days; assay type: organism-based; conditions: in vivo, 336 h, time 14 day
[9] = system: Mus musculus; experiment: Anti-inflammatory activity against DSS-induced acute colitis C57BL/6J mouse model assessed as reduction in edema at 10 to 20 mg/kg, po measured for 7 days; assay type: functional, organism-based; conditions: dose 10-20 mg/kg, time 7.0 day
[10] = Toxicity in C57BL/6 mouse assessed as body weight loss at 20 mg/kg, po measured for 7 days; assay type: organism-based; conditions: in vivo, 168 h, time 7 day
[11] = system: RAW264.7; experiment: Anti-inflammatory activity in LPS-stimulated mouse RAW264.7 cells assessed as inhibition of p65 phosphorylation at 0.5 to 2 uM preincubated with compound for 1 hr followed by LPS stimulation and measured after 30 mins by Western blot analysis; assay type: functional, cell-based; conditions: dose 0.5-2 µM, time 1.5 hrs

## C=CCOc1ccc(/C=C/c2cc(OC)cc(OC)c2-c2cnnn2C(=O)NCCCl)cc1
[1]
  Activity: Dose-Dependent Effect
[2]
  Activity: Non-Toxic
[3]
  Activity: Non-Toxic
[4]
  Activity: Non-Toxic
[5]
  Activity: Dose-Dependent Effect
[6]
  Activity: Non-Toxic
[7]
  Activity: Active
[8]
  Activity: Non-Toxic
[9]
  Activity: Active
[10]
  Activity: Toxic
[11]
  Activity: Active
